# System: healthy rats
# Conditions: rat, in vivo
# Experimental: Male rats of the breed Sprague Dawley from Charles River were used at the beginning of the experiment with weight of 200 g (n=8) per group listed below. […] Then for another 4 weeks (week 2-5), the feed mentioned above ad libitum with active substance additive. On the last day of each experiment week, the animals were kept individually in a metabolic cage for 24 hours (day 6 to day 7). Feces and urine were collected. Blood was obtained only on the last collection day. Blood and urine samples were examined by Synlab GmbH.
# The groups received as follows from week 2-5 additives per 100 g feed Group A control—no additives
# Group B adjuvants—addition of 0.2 g of mannitol and each 0.9 g of inulin and gum arabic
# Group D Velphoro®—based on iron as an additive to the feed 250 mg of iron
# Group E Fosrenol®—based on lanthanum as an additive to the feed 250 mg lanthanum
# Group F Renvela®—based on Sevelamer carbonate 500 mg
substance,measurement,value
sucroferric oxyhydroxide [Velphoro®],Feces excretion 24 hours Weight,17.1 ± 6.2 g
same,Urine volumes 24 hours,16.1 ± 3.6 mL
